According to patent US4428955A, “Benzopyran compounds, pharmaceutical compositions containing them and methods of use” (Boehringer Mannheim GmbH, priority 1981, dated 1984):

Test system: antigen induced bronchospasm
Assay: Inhibition of antigen induced bronchospasm in passively sensitized guinea pigs
Type: in vivo, guinea pig
Conditions: 60 min before antigen, 3 min after antigen application
Protocol: The following tests were conducted to determine the effectiveness of the new compounds in the inhibition of antigen induced bronchospasm in passively sensitized guinea pigs.
The antigen is twice recrystallised egg albumin. Equal volumes of saline solution of antigen (5 mg/ml) and Freund's complete adjuvant were emulsified and 0.15 ml injected into each hind foot of adult male guinea pigs (DAVIES and JOHNSON: Int. Arch. Allergy 41, 648-654 (1971)).
The animals were bled and the pooled serum stored at -20° C.
Injections of 0.5 ml antiserum of 1:50 dilution were given i.v. 24-48 h before challenge.
Guinea pigs were anaesthetized with pentobarbitone sodium (40 mg/kg i.p.). Cannulae were tied into the trachea and the jugular vein and the lung inflated with a pump at a rate of 72 strokes/min and a constant stroke volume of 6-8 ml.
Bronchospasm, provoked by injecting ovalbumin i.v. was measured as described in COLLIER, H. O. J., J. A. HOLGATE, M. SCHACHTER: THE BRONCHOCONSTRICTOR ACTION OF BRADYKININ IN THE GUINEA-PIG. Brit. J. Pharmacol. 15, 290 (1960) and KONZETT, H. und R. ROSSLER: Versuchsanordnung zu Untersuchungen an der Bronchialmuskulatur. Naunyn-Schmiedebergs Arch. exp. Path. Pharmk. 195, 71-74 (1940)
Drugs were applied p.o. 60 min before antigen. For calculation the following formular was used: [formula]
b=Bronchospasm after antigen injection, measured in mm from tracing
m=maximum height of tracing in mm with arm of the trachea-cannula clamped
a=pre injection height of the tracing in mm
% inhibition of bronchospasm was calculated by comparing control groups with drug pretreated groups 3 min after antigen application.

Cc1cc(=O)c2ccc(OCCCN3CCC(NC(=O)c4ccccc4C)CC3)cc2o1 [7-{3-[4-(2-methylbenzamido)-piperidino]-propoxy}-2-methyl-4H-1-benzopyran-4-one]
% Inhibition of BrSp (bronchospasm) (0.75 mg/kg p.o.): 60%

Cc1cc(=O)c2ccc(OCCCN3CCC(NC(=O)c4ccc(F)cc4)CC3)cc2o1 [7-{3-[4-(4-fluorobenzamido)-piperidino]-propoxy}-2-methyl-4H-1-benzopyran-4-one]
% Inhibition of BrSp (bronchospasm) (0.38 mg/kg p.o.): 46%

Cc1cc(=O)c2ccc(OCCCN3CCC(NC(=O)c4ccccc4)CC3)cc2o1 [7-[3-(4-Benzamidopiperidino)-propoxy]-2-methyl-4H-1-benzopyran-4-one]
% Inhibition of BrSp (bronchospasm) (0.38 mg/kg p.o.): 55%
% Inhibition of BrSp (bronchospasm) (0.75 mg/kg p.o.): 64%

Cc1c(C)c2ccc(OCCCN3CCC(NC(=O)c4cccs4)CC3)cc2oc1=O [3,4-Dimethyl-7-{3-[4-(thiophene-2-carboxamido)-piperidino]-propoxy}-cumarin, reference compound]
% Inhibition of BrSp (bronchospasm) (0.75 mg/kg p.o.): 0%
% Inhibition of BrSp (bronchospasm) (1.5 mg/kg p.o.): 40%
% Inhibition of BrSp (bronchospasm) (3.0 mg/kg p.o.): 67%
